Source: patent US4521406A, “Antitumor agent” (priority 1980, dated 1985)
Entries after “also recorded” stand apart in the source; their conditions may differ.

Key:
human Glioblastoma = experiment: Morphological changes of human Glioblastoma (Experimental Example 4); type: cell-based; settings: 50 μg/ml
tumor [1] = experiment: General statements on antitumor activity; settings: applicant's summary of Experimental Examples 1 to 6
tumor [2] = settings: general statement; cited from earlier work
HeLa cells = experiment: Growth inhibition of HeLa cells (Experimental Example 1); settings: for number of cells: drug used alone (control)
[3] = tested on: Glioblastoma cancer cells; experiment: Glioblastoma transplanted into the brain of rats, survival (Experimental Example 6); settings: 5-fluorocytosine 4 ml (10 mg/ml) i.p. every other day; 0.02 ml cytosinedeaminase (1 IU/ml) or PBS to transplantation site
[4] = general statement; cited from earlier work

Nc1nc(=O)[nH]cc1F [5-fluorocytosine]
morphological changes (human Glioblastoma): morphological changes such as the disintegration of the cytoplasm and the deformation of the nucleus were evidently noted | antitumor activity of the individual agents / of combined use (tumor [1]): neither 5-fluorocytosine nor cytosinedeaminase has antitumor activity | antitumor activity (tumor [2]): no antitumor activity | number of cells (HeLa cells; 2 days elapsed, 24 h contact): 73 ×10^-4 cells/ml | number of cells (HeLa cells; 4 days elapsed, 24 h contact): 120 ×10^-4 cells/ml | number of cells (HeLa cells; 6 days elapsed, 24 h contact): 205 ×10^-4 cells/ml | antitumor activity when used singly (HeLa cells; HeLa cells, used alone, result in words): do not have any antitumor activity | number of cells (HeLa cells; day 0, before 24 h treatment): 29 ×10^-4 cells/ml | Average days of survival [3]: 32 days

O=c1[nH]cc(F)c(=O)[nH]1 [5-fluorouracil]
antitumor activity (tumor [2]): intense antitumor activity; also recorded: effective against solid tumors | toxicity [4]: intense toxicity in oral and intravenous administrations

O=c1[nH]c(=O)n(C2CCCO2)cc1F (stereo not drawn) [tetrahydrofuryl 5-fluorouracil]
toxicity [4]: low toxicity
